According to BindingDB's records for doi:10.1021/jm030008u (Nida-Irp, 2003):

Assay: Binding affinity against Sigma receptor type 1 was determined by the displacement of [3H]pentazocine radioligand

| Compound | Ki [nM] |
| --- | --- |
| C[C@@H]1CN(CCCN(c2ccccc2)c2ccccc2)C[C@@H](C)N1 [[3-((3R,5R)-3,5-Dimethyl-piperazin-1-yl)-propyl]-diphenyl-amine] | 138 |
| C[C@@H]1CN(CCCN(c2ccc(F)cc2)c2ccc(F)cc2)C[C@@H](C)N1 [[3-((3R,5R)-3,5-Dimethyl-piperazin-1-yl)-propyl]-bis-(4-fluoro-phenyl)-amine] | 124 |
| C[C@@H]1CN(CCCn2c3ccc(Br)cc3c3cc(Br)ccc32)C[C@@H](C)N1 [3,6-Dibromo-9-[3-(3,5-dimethyl-piperazin-1-yl)-propyl]-9H-carbazole] | 4420 |
| C[C@@H]1CN(CCCn2c3ccccc3c3cc(N)ccc32)C[C@@H](C)N1 [9-[3-(3,5-Dimethyl-piperazin-1-yl)-propyl]-9H-carbazol-3-ylamine] | 5720 |
| Fc1ccc(N(CCCN2CCNCC2)c2ccc(F)cc2)cc1 [Bis-(4-fluoro-phenyl)-(3-piperazin-1-yl-propyl)-amine] | 1390 |
| C[C@@H]1CN(CCCn2c3ccccc3c3ccccc32)C[C@@H](C)N1C [9-[3-(3,4,5-Trimethyl-piperazin-1-yl)-propyl]-9H-carbazole] | 552 |
| C[C@@H]1CN(CCCn2c3ccccc3c3cc([N+](=O)[O-])ccc32)C[C@@H](C)N1 [9-[3-(3,5-Dimethyl-piperazin-1-yl)-propyl]-3-nitro-9H-carbazole] | 596 |

Stronger by Ki, values ahead:

| Ki [nM] | Compound |
| --- | --- |
| 32.5 | C[C@@H]1CN(CCCN(c2ccc(F)cc2)c2ccc(F)cc2)C[C@@H](C)N1CCc1ccc(Cl)c(Cl)c1 [(3-{(3R,5R)-4-[2-(3,4-Dichloro-phenyl)-ethyl]-3,5-dimethyl-piperazin-1-yl}-propyl)-bis-(4-fluoro-phenyl)-amine] |
| 19.5 | CCN(CC)CCOCCOC(=O)C1(c2ccccc2)CCCC1 [SMR000326757] |
| 29.6 | C[C@@H]1CN(CCCN(c2ccccc2)c2ccccc2)C[C@@H](C)N1CCc1ccc(Cl)c(Cl)c1 [(3-{(3R,5R)-4-[2-(3,4-Dichloro-phenyl)-ethyl]-3,5-dimethyl-piperazin-1-yl}-propyl)-diphenyl-amine] |
| 66.2 | Fc1ccc(N(CCCN2CCN(CCCc3ccccc3)CC2)c2ccc(F)cc2)cc1 [Bis-(4-fluoro-phenyl)-{3-[4-(3-phenyl-propyl)-piperazin-1-yl]-propyl}-amine] |
| 97.2 | C[C@@H]1CN(CCCN(c2ccccc2)c2ccccc2)C[C@@H](C)N1CCCc1ccccc1 [{3-[3,5-Dimethyl-4-(3-phenyl-propyl)-piperazin-1-yl]-propyl}-diphenyl-amine] |
| 104 | C[C@@H]1CN(CCCn2c3ccccc3c3ccccc32)C[C@@H](C)N1CCCc1ccccc1 [9-{3-[3,5-Dimethyl-4-(3-phenyl-propyl)-piperazin-1-yl]-propyl}-9H-carbazole] |
| 13.1 | Fc1ccc(N(CCCN2CCN(Cc3ccccc3)CC2)c2ccc(F)cc2)cc1 [N-(3-(4-benzylpiperazin-1-yl)propyl)-4-fluoro-N-(4-fluorophenyl)benzenamine] |
| 11.1 | C[C@@H]1CN(CCCN(c2ccc(F)cc2)c2ccc(F)cc2)C[C@@H](C)N1CCCc1ccccc1 [{3-[3,5-Dimethyl-4-(3-phenyl-propyl)-piperazin-1-yl]-propyl}-bis-(4-fluoro-phenyl)-amine] |
